Measurements: patent US6737383B1, “Herbicidal oxadiazolidines” (priority 1999, dated 2004)

Legend:
bedstraw = experiment: Test B pre/postemergence bedstraw; type: in vivo, Galium aparine
Outline: (§1)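 Test chemicals in a non-phytotoxic solvent mixture with surfactant were sprayed preemergence onto planted seeds and postemergence onto plants 2 to 18 cm tall (1- to 4-leaf stage). After twelve to sixteen days in a greenhouse, injury was visually rated against untreated controls from 0 (no effect) to 10 (complete control).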

blackgrass = experiment: Test B pre/postemergence blackgrass; type: in vivo, Alopecurus myosuroides
Outline: as §1

surinam grass = experiment: Test B pre/postemergence surinam grass; type: in vivo, Brachiaria decumbens
Outline: as §1

cocklebur = experiment: Test B pre/postemergence cocklebur; type: in vivo, Xanthium strumarium
Outline: as §1

corn = experiment: Test B pre/postemergence corn; type: in vivo, Zea mays
Outline: as §1

crabgrass = experiment: Test B pre/postemergence crabgrass; type: in vivo, Digitaria sanguinalis
Outline: as §1

giant foxtail = experiment: Test B pre/postemergence giant foxtail; type: in vivo, Setaria faberii
Outline: as §1

morningglory = experiment: Test B pre/postemergence morningglory; type: in vivo, Ipomoea hederacea
Outline: as §1

pigweed = experiment: Test B pre/postemergence pigweed; type: in vivo, Amaranthus retroflexus; details: for Plant response rating, Redroot pigweed: Postemergence
Outline: as §1

rape = experiment: Test B pre/postemergence rape; type: in vivo, Brassica napus
Outline: as §1

soybean = experiment: Test B pre/postemergence soybean; type: in vivo, Glycine max; details: for Plant response rating, Soybean: Postemergence
Outline: as §1

sugar beet = experiment: Test B pre/postemergence sugar beet; type: in vivo, Beta vulgaris; details: for Plant response rating, Sugarbeets: Postemergence
Outline: as §1

velvetleaf = experiment: Test B pre/postemergence velvetleaf; type: in vivo, Abutilon theophrasti; details: for Plant response rating, Velvetleaf: Postemergence
Outline: as §1

wheat = experiment: Test B pre/postemergence wheat; type: in vivo, Triticum aestivum; details: for Plant response rating, Wheat: Postemergence
Outline: as §1

wild oat = experiment: Test B pre/postemergence wild oat; type: in vivo, Avena fatua; details: for Plant response rating, Wild oats: Postemergence
Outline: as §1

purple nutsedge = experiment: Test B pre/postemergence purple nutsedge; type: in vivo, Cyperus rotundus
Outline: as §1

[1] = Postemergence, Rate 125 g/ha, scale 0 to 10, 0 is no effect, 10 is complete control
[2] = Preemergence, Rate 62 g/ha, scale 0 to 10 (0 no effect, 10 complete control)
[3] = Preemergence, Rate 125 g/ha, scale 0 to 10, 0 is no effect, 10 is complete control
[4] = Preemergence, Rate 500 g/ha, scale of 0 to 10 where 0 is no effect and 10 is complete control
[5] = Postemergence, Rate 62 g/ha, scale of 0 to 10, 0 is no effect, 10 is complete control
[6] = Postemergence, Rate 500 g/ha, scale of 0 to 10 where 0 is no effect and 10 is complete control
[7] = Rate 250 g/ha, Postemergence, scale of 0 to 10 where 0 is no effect and 10 is complete control
[8] = Rate 500 g/ha, scale of 0 to 10 where 0 is no effect and 10 is complete control
[9] = Rate 250 g/ha, scale of 0 to 10 where 0 is no effect and 10 is complete control

## CCOC(=O)C=C(Cn1c(=O)on(C(=O)N(c2ccccc2)C(C)C)c1=O)OCC [Compound 578]
bedstraw; [1]
  Bedstraw plant response rating: 8
bedstraw; [2]
  Bedstraw plant response rating: 0
bedstraw; [3]
  Bedstraw plant response rating: 0
bedstraw; Preemergence, Rate 250 g/ha
  Bedstraw plant response rating (0 to 10 scale): 0
bedstraw; [4]
  Bedstraw plant response rating: 0
blackgrass; [5]
  Blackgrass plant response rating: 0
blackgrass; [1]
  Blackgrass plant response rating: 0
blackgrass; [6]
  Plant response rating, Blackgrass: 2
blackgrass; [2]
  Blackgrass plant response rating: 0
blackgrass; [3]
  Blackgrass plant response rating: 0
blackgrass; Preemergence, Rate 250 g/ha
  Blackgrass plant response rating (0 to 10 scale): 0
blackgrass; [4]
  Blackgrass plant response rating: 4
blackgrass; [7]
  Plant response rating, Blackgrass: 0
Surinam grass; [5]
  B. signalgrass plant response rating: 0
Surinam grass; [1]
  B. signalgrass plant response rating: 0
Surinam grass; [6]
  Plant response rating, B. signalgrass: 0
Surinam grass; [2]
  B. signalgrass plant response rating: 0
Surinam grass; [3]
  B. signalgrass plant response rating: 3
Surinam grass; Preemergence, Rate 250 g/ha
  B. signalgrass plant response rating (0 to 10 scale, 0 is no effect, 10 is complete control): 9
Surinam grass; [4]
  B. signalgrass plant response rating: 9
Surinam grass; [7]
  Plant response rating, B. signalgrass: 0
cocklebur; [5]
  Cocklebur plant response rating: 0
cocklebur; [1]
  Cocklebur plant response rating: 0
cocklebur; [6]
  Plant response rating, Cocklebur: 0
cocklebur; [2]
  Cocklebur plant response rating: 0
cocklebur; [3]
  Cocklebur plant response rating: 0
cocklebur; Preemergence, Rate 250 g/ha
  Cocklebur plant response rating (0 to 10 scale): 0
cocklebur; [4]
  Cocklebur plant response rating: 3
cocklebur; [7]
  Plant response rating, Cocklebur: 0
corn; [5]
  Corn plant response rating: 0
corn; [1]
  Corn plant response rating: 0
corn; [6]
  Plant response rating, Corn: 0
corn; [2]
  Corn plant response rating: 3
corn; [3]
  Corn plant response rating: 2
corn; Preemergence, Rate 250 g/ha
  Corn plant response rating (0 to 10 scale): 2
corn; [4]
  Corn plant response rating: 4
corn; [7]
  Plant response rating, Corn: 0
crabgrass; [5]
  Crabgrass plant response rating: 0
crabgrass; [1]
  Crabgrass plant response rating: 2
crabgrass; [6]
  Plant response rating, Crabgrass: 9
crabgrass; [2]
  Crabgrass plant response rating: 0
crabgrass; [3]
  Crabgrass plant response rating: 9
crabgrass; Preemergence, Rate 250 g/ha
  Crabgrass plant response rating (0 to 10 scale): 9
crabgrass; [4]
  Crabgrass plant response rating: 10
crabgrass; [7]
  Plant response rating, Crabgrass: 4
Giant foxtail; [5]
  Giant foxtail plant response rating: 0
Giant foxtail; [1]
  Giant foxtail plant response rating: 4
Giant foxtail; [6]
  Plant response rating, Giant foxtail: 8
Giant foxtail; [2]
  Giant foxtail plant response rating: 2
Giant foxtail; [3]
  Giant foxtail plant response rating: 9
Giant foxtail; Preemergence, Rate 250 g/ha
  Giant foxtail plant response rating (0 to 10 scale): 10
Giant foxtail; [4]
  Giant foxtail plant response rating: 10
Giant foxtail; [7]
  Plant response rating, Giant foxtail: 7
morningglory; [5]
  Morningglory plant response rating: 9
morningglory; [1]
  Morningglory plant response rating: 10
morningglory; [6]
  Plant response rating, Morningglory: 10
morningglory; [2]
  Morningglory plant response rating: 0
morningglory; [3]
  Morningglory plant response rating: 0
morningglory; Preemergence, Rate 250 g/ha
  Morningglory plant response rating (0 to 10 scale): 0
morningglory; [4]
  Morningglory plant response rating: 0
morningglory; [7]
  Plant response rating, Morningglory: 10
pigweed; [8]
  Plant response rating, Redroot pigweed: 3
pigweed; [2]
  Redroot pigweed plant response rating: 2
pigweed; [3]
  Redroot pigweed plant response rating: 4
pigweed; Preemergence, Rate 250 g/ha
  Redroot pigweed plant response rating (0 to 10 scale): 9
pigweed; [4]
  Redroot pigweed plant response rating: 10
pigweed; [9]
  Plant response rating, Redroot pigweed: 3
rape; [5]
  Rape plant response rating: 2
rape; [1]
  Rape plant response rating: 2
rape; [6]
  Plant response rating, Rape: 4
rape; [2]
  Rape plant response rating: 0
rape; [3]
  Rape plant response rating: 0
rape; Preemergence, Rate 250 g/ha
  Rape plant response rating (0 to 10 scale): 2
rape; [4]
  Rape plant response rating: 4
rape; [7]
  Plant response rating, Rape: 4
soybean; [8]
  Plant response rating, Soybean: 4
soybean; [2]
  Soybean plant response rating: 0
soybean; [3]
  Soybean plant response rating: 0
soybean; Preemergence, Rate 250 g/ha
  Soybean plant response rating (0 to 10 scale): 0
soybean; [4]
  Soybean plant response rating: 0
soybean; [9]
  Plant response rating, Soybean: 3
Sugar beet; [8]
  Plant response rating, Sugarbeets: 4
Sugar beet; [2]
  Sugarbeets plant response rating: 0
Sugar beet; [3]
  Sugarbeets plant response rating: 2
Sugar beet; Preemergence, Rate 250 g/ha
  Sugarbeets plant response rating (0 to 10 scale): 3
Sugar beet; [4]
  Sugarbeets plant response rating: 3
Sugar beet; [9]
  Plant response rating, Sugarbeets: 0
velvetleaf; [8]
  Plant response rating, Velvetleaf: 3
velvetleaf; [2]
  Velvetleaf plant response rating: 0
velvetleaf; [3]
  Velvetleaf plant response rating: 2
velvetleaf; Preemergence, Rate 250 g/ha
  Velvetleaf plant response rating (0 to 10 scale): 2
velvetleaf; [4]
  Velvetleaf plant response rating: 2
velvetleaf; [9]
  Plant response rating, Velvetleaf: 4
wheat; [8]
  Plant response rating, Wheat: 0
wheat; [2]
  Wheat plant response rating: 0
wheat; [3]
  Wheat plant response rating: 0
wheat; Preemergence, Rate 250 g/ha
  Wheat plant response rating (0 to 10 scale): 0
wheat; [4]
  Wheat plant response rating: 2
wheat; [9]
  Plant response rating, Wheat: 0
Wild oat; [8]
  Plant response rating, Wild oats: 0
Wild oat; [2]
  Wild oats plant response rating: 0
Wild oat; [3]
  Wild oats plant response rating: 0
Wild oat; Preemergence, Rate 250 g/ha
  Wild oats plant response rating (0 to 10 scale): 2
Wild oat; [4]
  Wild oats plant response rating: 2
Wild oat; [9]
  Plant response rating, Wild oats: 0
Purple nutsedge; [6]
  Plant response rating, Nutsedge: 0
Purple nutsedge; [2]
  Nutsedge plant response rating: 0
Purple nutsedge; [3]
  Nutsedge plant response rating: 0
Purple nutsedge; Preemergence, Rate 250 g/ha
  Nutsedge plant response rating (0 to 10 scale): 0
Purple nutsedge; [4]
  Nutsedge plant response rating: 0
